In patent publication US20250223268A1, “4-Methylsulfonylbenzamide Compound, Preparation Method, Herbicidal Composition And Use” (Jiangsu Flag Chemical Industry Co., Ltd., priority 2022, published 2025):

The compounds below were run on Cyperus iria (assay: Greenhouse herbicidal activity assay, post-emergence). Details: Post-emergence test, rate 150 g a.i./hm^2; grade by fresh weight inhibition rate.
Type: in vivo
How it was run: (§1)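 Scores reflect fresh weight inhibition assessed 14-21 days after treatment, with grade A meaning ≥80% to 100% and grade E meaning <20%. Plants, raised in nutrient-soil pots inside a growth chamber, were sprayed on the foliage at the 3-6 leaf stage.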
For `COCSc1c(S(C)(=O)=O)ccc(C(=O)Nc2nnc(C)o2)c1Cl` [Compound 3-262], the “Control efficacy grade, Cyperus iria” value was “A (Fresh weight inhibition rate≥80% to 100%)”. For `CC(C)Sc1c(S(C)(=O)=O)ccc(C(=O)Nc2nnco2)c1Cl` [Compound 3-272], the “Control efficacy grade, Cyperus iria” value was “A (Fresh weight inhibition rate≥80% to 100%)”. In the case of `CCCCSc1c(S(C)(=O)=O)ccc(C(=O)Nc2nnco2)c1Cl` [Compound 3-277], the “Control efficacy grade, Cyperus iria” value is reported as “A (Fresh weight inhibition rate≥80% to 100%)”. `CC(C)CSc1c(S(C)(=O)=O)ccc(C(=O)Nc2nnco2)c1Cl` [Compound 3-293] was tested, and the “Control efficacy grade, Cyperus iria” value was “A (Fresh weight inhibition rate≥80% to 100%)”. In the case of `CS(=O)(=O)c1ccc(C(=O)Nc2nnco2)c(Cl)c1SCC1CC1` [Compound 3-298], the “Control efficacy grade, Cyperus iria” value is reported as “A (Fresh weight inhibition rate≥80% to 100%)”. For `CS(=O)(=O)c1ccc(C(=O)Nc2nnco2)c(Cl)c1SC1CC1` [Compound 3-303], the “Control efficacy grade, Cyperus iria” value was “B (Fresh weight inhibition rate≥260% to <80%)”. With `CS(=O)(=O)c1ccc(C(=O)Nc2nnco2)c(Cl)c1SC1CCC1` [Compound 3-308] the “Control efficacy grade, Cyperus iria” value was “A (Fresh weight inhibition rate≥80% to 100%)”. With `CS(=O)(=O)c1ccc(C(=O)Nc2nnco2)c(Cl)c1SC1CCCC1` [Compound 3-313] the “Control efficacy grade, Cyperus iria” value was “A (Fresh weight inhibition rate≥80% to 100%)”. In the case of `CS(=O)(=O)c1ccc(C(=O)Nc2nnco2)c(Cl)c1SC1CCCCC1` [Compound 3-318], the “Control efficacy grade, Cyperus iria” value is reported as “A (Fresh weight inhibition rate≥80% to 100%)”.

Each compound was assayed on Echinochloa crusgalli in the same assay as above. Details: Post-emergence test, rate 150 g a.i./hm^2; grade by fresh weight inhibition rate.
Type: in vivo
How it was run: as §1
`COCSc1c(S(C)(=O)=O)ccc(C(=O)Nc2nnc(C)o2)c1Cl` [Compound 3-262] was tested, and the “Control efficacy grade, Echinochloa crusgalli” value was “A (Fresh weight inhibition rate≥80% to 100%)”. For `CC(C)Sc1c(S(C)(=O)=O)ccc(C(=O)Nc2nnco2)c1Cl` [Compound 3-272], the “Control efficacy grade, Echinochloa crusgalli” value was “A (Fresh weight inhibition rate≥80% to 100%)”. In the case of `CCCCSc1c(S(C)(=O)=O)ccc(C(=O)Nc2nnco2)c1Cl` [Compound 3-277], the “Control efficacy grade, Echinochloa crusgalli” value is reported as “A (Fresh weight inhibition rate≥80% to 100%)”. With `CC(C)CSc1c(S(C)(=O)=O)ccc(C(=O)Nc2nnco2)c1Cl` [Compound 3-293] the “Control efficacy grade, Echinochloa crusgalli” value was “A (Fresh weight inhibition rate≥80% to 100%)”. In the case of `CS(=O)(=O)c1ccc(C(=O)Nc2nnco2)c(Cl)c1SCC1CC1` [Compound 3-298], the “Control efficacy grade, Echinochloa crusgalli” value is reported as “A (Fresh weight inhibition rate≥80% to 100%)”. `CS(=O)(=O)c1ccc(C(=O)Nc2nnco2)c(Cl)c1SC1CC1` [Compound 3-303] was tested, and the “Control efficacy grade, Echinochloa crusgalli” value was “A (Fresh weight inhibition rate≥80% to 100%)”. `CS(=O)(=O)c1ccc(C(=O)Nc2nnco2)c(Cl)c1SC1CCC1` [Compound 3-308] was tested, and the “Control efficacy grade, Echinochloa crusgalli” value was “A (Fresh weight inhibition rate≥80% to 100%)”. With `CS(=O)(=O)c1ccc(C(=O)Nc2nnco2)c(Cl)c1SC1CCCC1` [Compound 3-313] the “Control efficacy grade, Echinochloa crusgalli” value was “A (Fresh weight inhibition rate≥80% to 100%)”. With `CS(=O)(=O)c1ccc(C(=O)Nc2nnco2)c(Cl)c1SC1CCCCC1` [Compound 3-318] the “Control efficacy grade, Echinochloa crusgalli” value was “A (Fresh weight inhibition rate≥80% to 100%)”.

What follows are compounds tested on Eclipta prostrata in the same assay as above. Details: Post-emergence test, rate 150 g a.i./hm^2; grade by fresh weight inhibition rate.
Type: in vivo
How it was run: as §1
`COCSc1c(S(C)(=O)=O)ccc(C(=O)Nc2nnc(C)o2)c1Cl` [Compound 3-262] was tested, and the “Control efficacy grade, Eclipta prostrata” value was “A (Fresh weight inhibition rate≥80% to 100%)”. In the case of `CC(C)Sc1c(S(C)(=O)=O)ccc(C(=O)Nc2nnco2)c1Cl` [Compound 3-272], the “Control efficacy grade, Eclipta prostrata” value is reported as “A (Fresh weight inhibition rate≥80% to 100%)”. For `CCCCSc1c(S(C)(=O)=O)ccc(C(=O)Nc2nnco2)c1Cl` [Compound 3-277], the “Control efficacy grade, Eclipta prostrata” value was “A (Fresh weight inhibition rate≥80% to 100%)”. `CC(C)CSc1c(S(C)(=O)=O)ccc(C(=O)Nc2nnco2)c1Cl` [Compound 3-293] was tested, and the “Control efficacy grade, Eclipta prostrata” value was “A (Fresh weight inhibition rate≥80% to 100%)”. For `CS(=O)(=O)c1ccc(C(=O)Nc2nnco2)c(Cl)c1SCC1CC1` [Compound 3-298], the “Control efficacy grade, Eclipta prostrata” value was “A (Fresh weight inhibition rate≥80% to 100%)”. For `CS(=O)(=O)c1ccc(C(=O)Nc2nnco2)c(Cl)c1SC1CC1` [Compound 3-303], the “Control efficacy grade, Eclipta prostrata” value was “A (Fresh weight inhibition rate≥80% to 100%)”. `CS(=O)(=O)c1ccc(C(=O)Nc2nnco2)c(Cl)c1SC1CCC1` [Compound 3-308] was tested, and the “Control efficacy grade, Eclipta prostrata” value was “A (Fresh weight inhibition rate≥80% to 100%)”. `CS(=O)(=O)c1ccc(C(=O)Nc2nnco2)c(Cl)c1SC1CCCC1` [Compound 3-313] was tested, and the “Control efficacy grade, Eclipta prostrata” value was “A (Fresh weight inhibition rate≥80% to 100%)”. `CS(=O)(=O)c1ccc(C(=O)Nc2nnco2)c(Cl)c1SC1CCCCC1` [Compound 3-318] was tested, and the “Control efficacy grade, Eclipta prostrata” value was “A (Fresh weight inhibition rate≥80% to 100%)”.

The compounds below were run on Leptochloa chinensis in the same assay as above. Details: Post-emergence test, rate 150 g a.i./hm^2; grade by fresh weight inhibition rate.
Type: in vivo
How it was run: as §1
With `COCSc1c(S(C)(=O)=O)ccc(C(=O)Nc2nnc(C)o2)c1Cl` [Compound 3-262] the “Control efficacy grade, Leptochloa chinensis” value was “A (Fresh weight inhibition rate≥80% to 100%)”. `CC(C)Sc1c(S(C)(=O)=O)ccc(C(=O)Nc2nnco2)c1Cl` [Compound 3-272] was tested, and the “Control efficacy grade, Leptochloa chinensis” value was “A (Fresh weight inhibition rate≥80% to 100%)”. With `CCCCSc1c(S(C)(=O)=O)ccc(C(=O)Nc2nnco2)c1Cl` [Compound 3-277] the “Control efficacy grade, Leptochloa chinensis” value was “A (Fresh weight inhibition rate≥80% to 100%)”. `CC(C)CSc1c(S(C)(=O)=O)ccc(C(=O)Nc2nnco2)c1Cl` [Compound 3-293] was tested, and the “Control efficacy grade, Leptochloa chinensis” value was “A (Fresh weight inhibition rate≥80% to 100%)”. `CS(=O)(=O)c1ccc(C(=O)Nc2nnco2)c(Cl)c1SCC1CC1` [Compound 3-298] was tested, and the “Control efficacy grade, Leptochloa chinensis” value was “A (Fresh weight inhibition rate≥80% to 100%)”. With `CS(=O)(=O)c1ccc(C(=O)Nc2nnco2)c(Cl)c1SC1CC1` [Compound 3-303] the “Control efficacy grade, Leptochloa chinensis” value was “A (Fresh weight inhibition rate≥80% to 100%)”. In the case of `CS(=O)(=O)c1ccc(C(=O)Nc2nnco2)c(Cl)c1SC1CCC1` [Compound 3-308], the “Control efficacy grade, Leptochloa chinensis” value is reported as “A (Fresh weight inhibition rate≥80% to 100%)”. For `CS(=O)(=O)c1ccc(C(=O)Nc2nnco2)c(Cl)c1SC1CCCC1` [Compound 3-313], the “Control efficacy grade, Leptochloa chinensis” value was “A (Fresh weight inhibition rate≥80% to 100%)”. In the case of `CS(=O)(=O)c1ccc(C(=O)Nc2nnco2)c(Cl)c1SC1CCCCC1` [Compound 3-318], the “Control efficacy grade, Leptochloa chinensis” value is reported as “A (Fresh weight inhibition rate≥80% to 100%)”.

Each compound was assayed on Digitaria sanguinalis in the same assay as above. Details: Post-emergence test, rate 150 g a.i./hm^2; grade by fresh weight inhibition rate.
Type: in vivo
How it was run: as §1
In the case of `COCSc1c(S(C)(=O)=O)ccc(C(=O)Nc2nnc(C)o2)c1Cl` [Compound 3-262], the “Control efficacy grade, Digitaria sanguinalis” value is reported as “A (Fresh weight inhibition rate≥80% to 100%)”. In the case of `CC(C)Sc1c(S(C)(=O)=O)ccc(C(=O)Nc2nnco2)c1Cl` [Compound 3-272], the “Control efficacy grade, Digitaria sanguinalis” value is reported as “C (Fresh weight inhibition rate≥40% to <60%)”. With `CCCCSc1c(S(C)(=O)=O)ccc(C(=O)Nc2nnco2)c1Cl` [Compound 3-277] the “Control efficacy grade, Digitaria sanguinalis” value was “C (Fresh weight inhibition rate≥40% to <60%)”. For `CC(C)CSc1c(S(C)(=O)=O)ccc(C(=O)Nc2nnco2)c1Cl` [Compound 3-293], the “Control efficacy grade, Digitaria sanguinalis” value was “A (Fresh weight inhibition rate≥80% to 100%)”. In the case of `CS(=O)(=O)c1ccc(C(=O)Nc2nnco2)c(Cl)c1SCC1CC1` [Compound 3-298], the “Control efficacy grade, Digitaria sanguinalis” value is reported as “A (Fresh weight inhibition rate≥80% to 100%)”. For `CS(=O)(=O)c1ccc(C(=O)Nc2nnco2)c(Cl)c1SC1CC1` [Compound 3-303], the “Control efficacy grade, Digitaria sanguinalis” value was “A (Fresh weight inhibition rate≥80% to 100%)”. For `CS(=O)(=O)c1ccc(C(=O)Nc2nnco2)c(Cl)c1SC1CCC1` [Compound 3-308], the “Control efficacy grade, Digitaria sanguinalis” value was “A (Fresh weight inhibition rate≥80% to 100%)”. `CS(=O)(=O)c1ccc(C(=O)Nc2nnco2)c(Cl)c1SC1CCCC1` [Compound 3-313] was tested, and the “Control efficacy grade, Digitaria sanguinalis” value was “A (Fresh weight inhibition rate≥80% to 100%)”. `CS(=O)(=O)c1ccc(C(=O)Nc2nnco2)c(Cl)c1SC1CCCCC1` [Compound 3-318] was tested, and the “Control efficacy grade, Digitaria sanguinalis” value was “A (Fresh weight inhibition rate≥80% to 100%)”.
